From article PMC6130490, “Inhibition of key enzymes linked to type 2 diabetes by compounds isolated from Aframomum melegueta fruit” (Pharmaceutical Biology, 2017)
Where two headings read alike, the source gives them in different places.

How the values were obtained:
Format in all cases: biochemical
[1] = molecular target: T1, porcine pancreatic α-amylase (E.C. 3.2.1.1) (Sus scrofa, UniProt P00690); experiment: α-Amylase inhibitory effect (starch/DNS method); conditions: mean ± SD of triplicate; compounds tested at 30–240 μg/mL; read-out: IC50 α-amylase inhibition
T1 construct: purchased Sigma-Aldrich through Capital Lab Supplies
T1 sequence (P00690 16-511): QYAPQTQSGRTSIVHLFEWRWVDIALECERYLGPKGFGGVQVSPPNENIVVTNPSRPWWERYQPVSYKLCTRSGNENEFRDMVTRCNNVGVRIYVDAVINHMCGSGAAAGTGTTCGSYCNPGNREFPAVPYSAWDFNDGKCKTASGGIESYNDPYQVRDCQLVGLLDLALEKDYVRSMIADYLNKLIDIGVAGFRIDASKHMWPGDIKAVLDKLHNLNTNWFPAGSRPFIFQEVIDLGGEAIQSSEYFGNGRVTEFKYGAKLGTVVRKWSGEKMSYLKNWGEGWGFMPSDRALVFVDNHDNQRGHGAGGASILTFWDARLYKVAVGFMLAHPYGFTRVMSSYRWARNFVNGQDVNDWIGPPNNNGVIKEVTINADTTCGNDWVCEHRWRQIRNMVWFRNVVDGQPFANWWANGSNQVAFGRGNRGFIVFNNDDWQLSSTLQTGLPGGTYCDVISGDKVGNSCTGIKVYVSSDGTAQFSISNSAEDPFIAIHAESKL
Procedure: (§1) Saccharomyces cerevisiae α-glucosidase (E.C. 3.2.1.20), porcine pancreatic α-amylase (E.C. 3.2.1.1), p-nitrophenyl glucopyranoside (pNPG) and p-nitrophenol were obtained from Sigma-Aldrich through Capital Lab Supplies, New Germany, South Africa. Starch, dinitrosalicylic acid (DNS), maltose, absolute ethanol and ethyl acetate were obtained from Merck Chemical Company, Durban, South Africa.
(§2) This solution was pre-incubated at 25 °C for 10 min, after which 250 μL of 1% starch solution in 0.02 M sodium phosphate buffer (pH 6.9) was added at a time interval of 10 s and then further incubated at 25 °C for 10 min. The reaction was terminated after incubation by adding 1 mL of dinitrosalicylic acid (DNS) reagent. The tube was then boiled for 10 min and cooled to room temperature. […] A control was prepared using the same procedure using distilled water instead of the compound.

[2] = molecular target: T2, Saccharomyces cerevisiae α-glucosidase (E.C. 3.2.1.20) (Saccharomyces cerevisiae, UniProt P53341); experiment: α-Glucosidase inhibitory effect (pNPG method)
T2 construct: purchased Sigma-Aldrich through Capital Lab Supplies
Procedure: as §1
(§3) The 5.0 mM p-nitrophenyl glucopyranoside (pNPG) substrate solution was prepared in 20 mM phosphate buffer, pH 6.9. […] Thereafter, 250 μL of 5.0 mM pNPG was dissolved in 20 mM phosphate buffer (pH 6.9) as a substrate to start the reaction. The reaction mixture was incubated at 37 °C for 30 min.

[3] = molecular target: T1, porcine pancreatic α-amylase (E.C. 3.2.1.1); experiment: Mechanism of α-amylase inhibition (Lineweaver-Burke kinetics); conditions: compound 30 μg/mL; for type of inhibition of α-amylase: Lineweaver-Burke plot; for KM, α-amylase inhibition / Ki / Vmax, α-amylase inhibition: starch 0.063–1.0%
Procedure: as §2
(§4) The isolated compounds were subjected to kinetic experiments to determine the type of inhibition exerted on α-amylase and α-glucosidase. The experiment was conducted according to the protocols mentioned above at a constant concentration of the compounds (30 μg/mL) with a variable concentration of substrate. […] The initial velocity data obtained were used to construct Lineweaver-Burke plots to determine the K M (Michaelis constant) and v max (maximum velocity) of the enzyme as well as the Ki (inhibition binding constant as a measure of affinity of the inhibitor to the enzyme) and the type of inhibition for both enzymes.

[4] = molecular target: T2, Saccharomyces cerevisiae α-glucosidase (E.C. 3.2.1.20); experiment: biochemical; conditions: for type of inhibition of α-glucosidase: Lineweaver-Burke plot
Procedure: as §3, §4

[5] = compound 30 μg/mL, pNPG 0.313–5.0 mM
[6] = mean ± SD of triplicate, compounds tested at 30–240 μg/mL, read-out: IC50 α-glucosidase inhibition
[7] = compound 30 μg/mL, pNPG 0.313–5.0 mM, read-out: Ki, α-glucosidase inhibition (converted)

T2 sequence (P53341 whole entry): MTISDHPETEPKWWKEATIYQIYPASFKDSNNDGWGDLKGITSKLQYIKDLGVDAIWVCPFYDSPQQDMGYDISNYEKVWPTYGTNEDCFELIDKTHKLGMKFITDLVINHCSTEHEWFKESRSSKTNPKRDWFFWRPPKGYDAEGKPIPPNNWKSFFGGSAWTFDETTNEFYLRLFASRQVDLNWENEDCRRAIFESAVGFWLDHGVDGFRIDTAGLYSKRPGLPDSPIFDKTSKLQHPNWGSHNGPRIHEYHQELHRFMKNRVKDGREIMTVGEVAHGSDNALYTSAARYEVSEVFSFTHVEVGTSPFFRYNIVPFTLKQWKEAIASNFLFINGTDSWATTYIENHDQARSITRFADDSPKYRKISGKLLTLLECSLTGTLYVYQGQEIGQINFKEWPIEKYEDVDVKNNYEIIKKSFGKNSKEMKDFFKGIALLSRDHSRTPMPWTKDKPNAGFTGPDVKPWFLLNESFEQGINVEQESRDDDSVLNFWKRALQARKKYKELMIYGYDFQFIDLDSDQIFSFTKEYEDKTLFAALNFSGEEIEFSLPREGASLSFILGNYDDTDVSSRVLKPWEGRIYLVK

SMILES	IC50 [1] [µM]	IC50 [2] [µM]	type of inhibition of α-amylase [3]	KM, α-amylase inhibition [3] [%]	Ki [3] [µM]	Vmax, α-amylase inhibition [3] [µmol/min]	Ki [4] [µM]	type of inhibition of α-glucosidase ([4]; compound 30 μg/mL)	Vmax, α-glucosidase inhibition [4, 5] [µmol/min]	IC50 [2, 6] [µM]	Ki [4, 7] [µM]
CCCCC[C@H](O)CC(=O)CCc1ccc(O)c(OC)c1 [6-Gingerol (3), 6-gingerol]	81.8 ± 7.79	21.5 ± 0.45	noncompetitive	0.06	89.9	16.73	26.6	noncompetitive	123.10		
CCCCCCCC(=O)CCc1ccc(O)c(OC)c1 [6-Paradol (1), 6-paradol]	665 ± 11.6		noncompetitive	0.06	83.7	15.60		noncompetitive	81.20	243 ± 6.65	22.4
CCCCC/C=C/C(=O)CCc1ccc(O)c(OC)c1 [6-Shagaol (2), 6-shogaol]	443.2 ± 1.38		mixed	0.09	226	24.10			55.70	326 ± 5.6	14.5
CC1(C)CC[C@]2(C(=O)O)CC[C@]3(C)C(=CC[C@@H]4[C@@]5(C)CC[C@H](O)C(C)(C)[C@@H]5CC[C@]43C)[C@@H]2C1 [Oleanolic acid (4), oleanolic acid]									64.20		
